Values quoted from earlier work as cited in patent US6132766A, “Multivesicular liposomes with controlled release of encapsulated biologically active substances” (priority 1998, dated 2000).

Tests used:
[1] = test system: strains of both gram negative and gram positive bacteria; conditions: background statement
[2] = unencapsulated drug; about

NCC[C@H](O)C(=O)N[C@@H]1C[C@H](N)[C@@H](O[C@H]2O[C@H](CN)[C@@H](O)[C@H](O)[C@H]2O)[C@H](O)[C@H]1O[C@H]1O[C@H](CO)[C@@H](O)[C@H](N)[C@H]1O [amikacin]
activity against strains of both gram negative and gram positive bacteria [1]: clinically significant activity | serum half-life [2]: two to three
